Laboratory results as given in paper PMC3057018, “Inhibition of Recombinant D-Amino Acid Oxidase from Trigonopsis variabilis by Salts” (Enzyme Research, 2011).

What was measured:
[1] = molecular target: T1, TvDAAO (recombinant His-tagged D-amino acid oxidase from Trigonopsis variabilis) (Trigonopsis variabilis, UniProt Q99042); assay: DNPH end-point assay of pyruvate at […] nm; format: biochemical; design: gene DAO1; N-terminal hexahistidine tag, expressed in E. coli mainly as apoenzyme, metal-chelate purified, holoenzyme reconstituted with FAD; conditions: FAD added, potassium phosphate pH 8.0, 30 °C
[2] = molecular target: T1, TvDAAO (recombinant His-tagged D-amino acid oxidase from Trigonopsis variabilis); assay: intrinsic tryptophan fluorescence (excitation […] nm) of reconstituted holoenzyme with NaCl; format: binding; design: gene DAO1; N-terminal hexahistidine tag, expressed in E. coli mainly as apoenzyme, metal-chelate purified, holoenzyme reconstituted with FAD; conditions: 25 °C; FAD dissociation by NaCl followed indirectly; holoenzyme reconstituted with 5-fold FAD; noncovalent
[3] = molecular target: T1, TvDAAO (recombinant His-tagged D-amino acid oxidase from Trigonopsis variabilis); assay: biochemical; design: gene DAO1

T1 sequence (Q99042 whole entry): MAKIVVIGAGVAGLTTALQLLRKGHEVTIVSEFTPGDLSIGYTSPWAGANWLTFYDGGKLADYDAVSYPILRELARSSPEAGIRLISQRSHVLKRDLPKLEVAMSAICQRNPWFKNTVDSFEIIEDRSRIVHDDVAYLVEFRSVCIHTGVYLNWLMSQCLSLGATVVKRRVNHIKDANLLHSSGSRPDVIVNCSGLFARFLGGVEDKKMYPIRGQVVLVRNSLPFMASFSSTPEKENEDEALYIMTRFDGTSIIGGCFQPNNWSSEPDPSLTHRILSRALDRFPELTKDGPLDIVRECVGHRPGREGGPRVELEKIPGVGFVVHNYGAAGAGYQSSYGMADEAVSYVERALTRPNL

C[C@@H](N)C(=O)O [D-alanine]
DNPH end-point assay of pyruvate at 450 nm [1]: measured the release of α-ketoacid from D-alanine during the reaction

Cc1cc2nc3c(=O)[nH]c(=O)nc-3n(C[C@H](O)[C@H](O)[C@H](O)COP(=O)(O)OP(=O)(O)OC[C@H]3O[C@@H](n4cnc5c(N)ncnc54)[C@H](O)[C@@H]3O)c2cc1C [FAD]
intrinsic tryptophan fluorescence (excitation 295 nm) of reconstituted holoenzym [2]: Such an effect may be related to the loss of cofactor FAD

Cl [NaCl]
Ki [3]: 85 mM
